{"source": "patent US12383511B2", "about": "“Osteogenic agents and uses thereof” (GoldPorp Pharma Limited, priority 2022, dated 2025)", "key": {"Estrogen receptor beta": {"target": "Estrogen receptor beta (Homo sapiens, UniProt Q92731)", "sequence (Q92731 whole entry, species assumed)": "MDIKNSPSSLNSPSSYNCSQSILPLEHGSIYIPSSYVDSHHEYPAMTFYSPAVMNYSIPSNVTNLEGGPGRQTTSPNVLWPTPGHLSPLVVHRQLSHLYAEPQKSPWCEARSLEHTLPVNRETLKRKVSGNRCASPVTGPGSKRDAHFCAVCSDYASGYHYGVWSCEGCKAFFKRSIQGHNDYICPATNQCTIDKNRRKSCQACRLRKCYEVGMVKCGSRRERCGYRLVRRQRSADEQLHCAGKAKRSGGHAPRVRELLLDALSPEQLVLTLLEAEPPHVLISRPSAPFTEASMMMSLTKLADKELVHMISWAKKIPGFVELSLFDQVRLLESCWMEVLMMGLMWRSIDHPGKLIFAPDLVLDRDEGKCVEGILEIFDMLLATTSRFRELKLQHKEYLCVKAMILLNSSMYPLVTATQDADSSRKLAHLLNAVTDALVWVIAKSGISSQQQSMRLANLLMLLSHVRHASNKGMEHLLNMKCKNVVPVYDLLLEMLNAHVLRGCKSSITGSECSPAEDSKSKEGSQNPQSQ", "experiment": "biochemical"}, "MC3T3-E1 osteoblasts [1]": {"system": "MC3T3-E1 osteoblasts", "experiment": "Cell viability / cell number NBB assay", "assay_type": "cell-based", "experimental": "MC3T3-E1 cells were seeded at 7×10^3 cells/well in 96-well plates for 2 days. […] After treatment, cells were fixed with 3% formalin and stained with NBB solution (0.05% NBB with 0.1 M sodium acetate and 9% acetic acid) at room temperature. Twenty four hours later, staining solution was removed and distilled water was added to remove free dye. Then, 100 ul of 50 mM […] was added to dissolve bound dye and recorded absorbance at 590 nm."}, "MC3T3-E1 osteoblasts [2]": {"system": "MC3T3-E1 osteoblasts", "experiment": "Alkaline phosphatase (ALP) activity assay in MC3T3-E1 osteoblasts", "assay_type": "cell-based", "experimental": "MC3T3-E1 (passage 4-10) was maintained in Minimal Essential Media (MEM) supplemented with 10% FBS, 1 mM Sodium Pyruvate and 1% 100 ug/ml penicillin-streptomycin (100 U/ml). All reagents are from GIBCO Life Technologies.\nMC3T3-E1 cells were seeded at 1×10^5 cells per well in 24-well plate. […] After treatment, cells were washed twice with PBS and lysed with buffer contains 50 mM Tris pH7.4 and 0.1% Triton X-100. After 3 freeze-thaw cycles, 40 ul of cell lysate was mixed with 50 ul of 2× Assay buffer (2-Amino-2methyl-1-propanol, pH 10.4 with 4 mM MgCl2) and 10 ul of 0.1M 4-Nitrophenyl phosphate. Incubated in 37° C. and recorded at OD410."}, "MC3T3-E1 osteoblast": {"system": "MC3T3-E1 osteoblast", "experiment": "mRNA expression of osteogenesis-related molecules by real-time PCR", "assay_type": "cell-based", "conditions": "for AFT6 mRNA expression / ALP mRNA expression / ATF3 mRNA expression / Axin2 mRNA expression / BMP2 mRNA expression / BMP7 mRNA expression / BSP mRNA expression / COL1A1 mRNA expression / Fzd1 mRNA expression / Fzd2 mRNA expression / Fzd5 mRNA expression / LRP5 mRNA expression / OCN mRNA expression / OPN mRNA expression / OSN mRNA expression / OSX mRNA expression / Runx2 mRNA expression / VDR mRNA expression / Wnt3A mRNA expression / Wnt5A mRNA expression / Wnt7B mRNA expression / Wnt11 mRNA expression: BMP2 30 ng/ml, ASC 400 μM + β-GP 5 mM, F1 5 μM, F4 5 μM, relative to DMSO control, normalized to GAPDH", "experimental": "MC3T3-E1 cells were seeded in 6-well plates at 1×10^5 cells per well for 2 days. […] Total RNA was isolated at Day 2 and Day 4 with Trizol® reagent, 1 ug of total RNA was subjected to reverse transcription/cDNA synthesis using Superscript III first-strand synthesis system (Life Technologies).\nEqual amount of cDNA generated from reverse transcription reactions were subjected to real-time PCR with SYBR® Green PCR Master Mix and primers for osteoblast differentiation markers. Primers used included: […]\nOsteoblast differentiation markers genes expression were analyzed by ABI prism 7900HT Sequence Detection System and the relative level of transcript expression was quantified by ΔΔCt method."}, "[3]": {"system": "estrogen responsive gene elements (ERE)", "experiment": "pERE-Luc reporter gene assay in MC3T3-E1", "assay_type": "cell-based", "conditions": "0.5-10 μM, MC3T3-E1", "experimental": "MC3T3-E1 were seeded at 9.0×10^4 per well in 24-well plates. Twenty-four hours after cell seeding, cells were transiently transfected with 500 ng pERE-Luc (contains three repeats of estrogen-response element) by lipofectamine 2000 (Life Technologies) according to manufacturers' instruction (lipofectamine:DNA=3:1)."}, "[4]": {"system": "MC3T3-E1 osteoblast cells", "experiment": "Osteoblast mineralization assay (Alizarin Red staining)", "assay_type": "cell-based", "conditions": "[…] or 5 μM in osteoblast mineralization medium, day 14, compared with control", "experimental": "MC3T3-E1 cells were seeded at 1×10^5 cells per well in 24-well plates. […] […] Cells were washed twice with PBS and fixed with 10% formalin for 1 hour. Fixed cell was washed twice with distilled water and stained with 2% Alizarin Red S solution (pH 4.1) in the dark for 1 hour. Stain solution was removed and washed 4 times with distilled water."}, "p38": {"system": "p38", "experiment": "Western blot of phosphorylated p38 and total p38", "assay_type": "cell-based", "conditions": "5 μM, 15 min and 30 min, MC3T3-E1 osteoblasts", "experimental": "MC3T3-E1 were lysed with 20 mM Tris pH8.0, 137 mM NaCl, 2 mM EDTA, 1% Triton X-100 and 10% Glycerol with protease inhibitor cocktail (Roche, complete). Protein concentration was determined by Bradford Protein Assay (Bio-Rad) and equal amount of proteins (30 μg) was resolved by SDS-PAGE and transferred onto PVDF membrane. The membrane was blocked with 3% BSA in Tris-buffered saline containing 0.1% Tween 20 and incubated with primary antibody (1:1000) overnight at 4° C. then incubated with HRP-linked secondary antibody for 1 h. Chemiluminescence signals were detected using enhanced chemiluminescence reagents (GE Healthcare) on X-Ray films (Fujifilm).\nThe levels of phosphorylated p38 and total p38 were determined by immunoblotting experiments."}, "MDA-MB-231 cells": {"system": "MDA-MB-231 cells", "experiment": "BrdU incorporation proliferation assay", "assay_type": "cell-based", "conditions": "5 μM"}, "MCF7 cells": {"system": "MCF7 cells", "experiment": "BrdU incorporation proliferation assay", "assay_type": "cell-based", "source_text": "The effect of F compounds on estrogen dependent cancer cells was investigated (FIG. 8). […] The fold increase of MCF7 proliferation was similar to that induced by estradiol treatment."}}}
{"smiles": "C=Cc1cc(O)cc2c1-c1ccc(O)c(C)c1CC2", "note": "[F4, effusol]", "values": [{"measurement": "IC50", "setting": "Estrogen receptor beta", "result": 5.6, "unit": "nM"}, {"measurement": "cell number (NBB assay)", "setting": "MC3T3-E1 osteoblasts [1]; 0.625 to 10 μM", "result": "slightly increased the cell number"}, {"measurement": "cell viability (NBB assay)", "setting": "MC3T3-E1 osteoblasts [1]; higher concentrations (25-100 μM)", "result": "significant loss of cell viability"}, {"measurement": "cellular alkaline phosphatase (ALP) enzyme activities", "setting": "MC3T3-E1 osteoblasts [2]; 0.5, 1.5, 5 μM", "result": "increased the cellular alkaline phosphatase (ALP) enzyme activities in a concentration-dependent manner"}, {"measurement": "concentration at which increases in ALP activities were already evident", "setting": "MC3T3-E1 osteoblasts [2]; at 24 and 48 h after treatment", "result": 0.5, "unit": "µM"}, {"measurement": "concentration of maximum increase in ALP activities", "setting": "MC3T3-E1 osteoblasts [2]; at 24 and 48 h after treatment", "result": 5, "unit": "µM"}, {"measurement": "mRNA of Wnt pathway members Wnt3A and frizzled 1", "setting": "MC3T3-E1 osteoblast", "result": "increases"}, {"measurement": "AFT6 mRNA expression", "setting": "MC3T3-E1 osteoblast; D 2", "result": 1.5, "unit": "fold"}, {"measurement": "ALP mRNA expression", "setting": "MC3T3-E1 osteoblast; D 2", "result": 2.1, "unit": "fold"}, {"measurement": "ATF3 mRNA expression", "setting": "MC3T3-E1 osteoblast; D 2", "result": 0.7, "unit": "fold"}, {"measurement": "Axin2 mRNA expression", "setting": "MC3T3-E1 osteoblast; D 2", "result": 1.1, "unit": "fold"}, {"measurement": "BMP2 mRNA expression", "setting": "MC3T3-E1 osteoblast; D 2", "result": 1.0, "unit": "fold"}, {"measurement": "BMP7 mRNA expression", "setting": "MC3T3-E1 osteoblast; D 2", "result": 1.0, "unit": "fold"}, {"measurement": "BSP mRNA expression", "setting": "MC3T3-E1 osteoblast; D 2", "result": 1.6, "unit": "fold"}, {"measurement": "COL1A1 mRNA expression", "setting": "MC3T3-E1 osteoblast; D 2", "result": 1.0, "unit": "fold"}, {"measurement": "Fzd1 mRNA expression", "setting": "MC3T3-E1 osteoblast; D 2", "result": 3.3, "unit": "fold"}, {"measurement": "Fzd2 mRNA expression", "setting": "MC3T3-E1 osteoblast; D 2", "result": 0.8, "unit": "fold"}, {"measurement": "Fzd5 mRNA expression", "setting": "MC3T3-E1 osteoblast; D 2", "result": 0.7, "unit": "fold"}, {"measurement": "LRP5 mRNA expression", "setting": "MC3T3-E1 osteoblast; D 2", "result": 0.9, "unit": "fold"}, {"measurement": "OCN mRNA expression", "setting": "MC3T3-E1 osteoblast; D 2", "result": 17, "unit": "fold"}, {"measurement": "OPN mRNA expression", "setting": "MC3T3-E1 osteoblast; D 2", "result": 1.5, "unit": "fold"}, {"measurement": "OSN mRNA expression", "setting": "MC3T3-E1 osteoblast; D 2", "result": 0.9, "unit": "fold"}, {"measurement": "OSX mRNA expression", "setting": "MC3T3-E1 osteoblast; D 2", "result": 0.6, "unit": "fold"}, {"measurement": "Runx2 mRNA expression", "setting": "MC3T3-E1 osteoblast; D 2", "result": 1.3, "unit": "fold"}, {"measurement": "VDR mRNA expression", "setting": "MC3T3-E1 osteoblast; D 2", "result": 2.1, "unit": "fold"}, {"measurement": "Wnt3A mRNA expression", "setting": "MC3T3-E1 osteoblast; D 2", "result": 0.9, "unit": "fold"}, {"measurement": "Wnt5A mRNA expression", "setting": "MC3T3-E1 osteoblast; D 2", "result": 1.0, "unit": "fold"}, {"measurement": "Wnt7B mRNA expression", "setting": "MC3T3-E1 osteoblast; D 2", "result": 0.6, "unit": "fold"}, {"measurement": "Wnt11 mRNA expression", "setting": "MC3T3-E1 osteoblast; D 2", "result": 0.8, "unit": "fold"}, {"measurement": "AFT6 mRNA expression", "setting": "MC3T3-E1 osteoblast; D 4", "result": 2.1, "unit": "fold"}, {"measurement": "ALP mRNA expression", "setting": "MC3T3-E1 osteoblast; D 4", "result": 4.6, "unit": "fold"}, {"measurement": "ATF3 mRNA expression", "setting": "MC3T3-E1 osteoblast; D 4", "result": 0.9, "unit": "fold"}, {"measurement": "Axin2 mRNA expression", "setting": "MC3T3-E1 osteoblast; D 4", "result": 1.1, "unit": "fold"}, {"measurement": "BMP2 mRNA expression", "setting": "MC3T3-E1 osteoblast; D 4", "result": 0.9, "unit": "fold"}, {"measurement": "BMP7 mRNA expression", "setting": "MC3T3-E1 osteoblast; D 4", "result": 1.3, "unit": "fold"}, {"measurement": "BSP mRNA expression", "setting": "MC3T3-E1 osteoblast; D 4", "result": 1.2, "unit": "fold"}, {"measurement": "COL1A1 mRNA expression", "setting": "MC3T3-E1 osteoblast; D 4", "result": 1.2, "unit": "fold"}, {"measurement": "Fzd1 mRNA expression", "setting": "MC3T3-E1 osteoblast; D 4", "result": 5.8, "unit": "fold"}, {"measurement": "Fzd2 mRNA expression", "setting": "MC3T3-E1 osteoblast; D 4", "result": 0.8, "unit": "fold"}, {"measurement": "Fzd5 mRNA expression", "setting": "MC3T3-E1 osteoblast; D 4", "result": 0.8, "unit": "fold"}, {"measurement": "LRP5 mRNA expression", "setting": "MC3T3-E1 osteoblast; D 4", "result": 1.0, "unit": "fold"}, {"measurement": "OCN mRNA expression", "setting": "MC3T3-E1 osteoblast; D 4", "result": 9, "unit": "fold"}, {"measurement": "OPN mRNA expression", "setting": "MC3T3-E1 osteoblast; D 4", "result": 2.7, "unit": "fold"}, {"measurement": "OSN mRNA expression", "setting": "MC3T3-E1 osteoblast; D 4", "result": 2, "unit": "fold"}, {"measurement": "OSX mRNA expression", "setting": "MC3T3-E1 osteoblast; D 4", "result": 0.6, "unit": "fold"}, {"measurement": "Runx2 mRNA expression", "setting": "MC3T3-E1 osteoblast; D 4", "result": 1.7, "unit": "fold"}, {"measurement": "VDR mRNA expression", "setting": "MC3T3-E1 osteoblast; D 4", "result": 1.6, "unit": "fold"}, {"measurement": "Wnt3A mRNA expression", "setting": "MC3T3-E1 osteoblast; D 4", "result": 1.9, "unit": "fold"}, {"measurement": "Wnt5A mRNA expression", "setting": "MC3T3-E1 osteoblast; D 4", "result": 0.8, "unit": "fold"}, {"measurement": "Wnt7B mRNA expression", "setting": "MC3T3-E1 osteoblast; D 4", "result": 0.1, "unit": "fold"}, {"measurement": "Wnt11 mRNA expression", "setting": "MC3T3-E1 osteoblast; D 4", "result": 0.4, "unit": "fold"}, {"measurement": "levels of osteocalcin (OCN) and osteoportin (OPN) mRNA", "setting": "MC3T3-E1 osteoblast; treatment of cells with F1 or F4", "result": "markedly increased"}, {"measurement": "transcriptional activity driven by estrogen responsive gene elements (ERE)", "setting": "[3]", "result": "stimulated the transcriptional activity driven by estrogen responsive gene elements (ERE) in a dose-dependent manner"}, {"measurement": "Alizarin Red staining (calcium deposition) in cell layers", "setting": "[4]", "result": "significantly enhanced"}, {"measurement": "levels of phosphorylated p38", "setting": "p38", "result": "increased levels of phosphorylated p38"}, {"measurement": "cell proliferation induced by 17beta-estradiol in MDA-MB-231 cells (ER negative)", "setting": "MDA-MB-231 cells", "result": "had no effect"}, {"measurement": "MCF7 cell proliferation induced by estradiol", "setting": "MCF7 cells; 5 μM", "result": "significantly suppress"}, {"measurement": "MCF7 cell proliferation", "setting": "MCF7 cells; dose of 5 μM or higher", "result": "inhibited the proliferation"}, {"measurement": "MCF7 cell proliferation", "setting": "MCF7 cells; low dose of 0.3 μM", "result": "induced MCF7 cell proliferation"}]}
